Laboratory results: patent US10654918B2, “Inflammatory disease diagnosis and methods of treatment using down-regulators of lipopolysaccharide-responsive beige-like anchor” (University of South Florida, priority 2013, dated 2020)

Tests used:
[1] = test system: CVID receptors, B220 and TLR4; test: LPS regulates CVID receptors, B220 and TLR4 in vivo (cytometry of spleen and bone marrow cells); set-up: species or system C57BL/6J mice; details: for B220 Median Intensity fold / B220 Percentage fold / BAFFR Median Intensity fold / BAFFR Percentage fold / CD19 Median Intensity fold / CD19 Percentage fold / CD21 Median Intensity fold / CD21 Percentage fold / TACI Median Intensity fold / TACI Percentage fold / TLR4 Median Intensity fold / TLR4 Percentage fold: PBS vs LPS
Procedure: (§1) FIG. 34(A)-(B) are graphs showing LPS regulates BAFFR in vivo and in vitro. C57BL/6J mice of 2-month age were injected intraperitoneally with LPS (5 μg/g body weight) or PBS (control). For in vitro LPS stimulation, cells from mouse spleen or bone marrow were cultured with or without LPS (1 μg/ml) for 24 hr. Cells were stained with fluorophores-conjugated BAFFR and TACI antibodies and DAPI for dead/live discrimination and analyzed with cytometry. (A) Spleocytes without LPS-P3, (B) bone marrow cells without LPS-P3. Negative gating was based on B220 negative cells, which are negative for BAFFR and TACI. Numbers other than percentage are arbitrary MFI units. All experiments were done in triplicate for in the vitro experiment and data shown is representative of two separate experiments.
(§2) To investigate whether CVID genes also respond to LPS, mice were injected intraperitoneally with LPS. Twenty-four hours later the spleen and bone marrow cells were harvested and subjected to cytometry assay.

[2] = test system: splenocytes and bone marrow cells; test: Ex vivo culture of splenocytes and bone marrow cells with LPS; assay type: cell-based, mouse; details: ex vivo cell culture, 24 h LPS stimulation (1 μg/ml)
Procedure: as §1, §2

[3] = test system: RAW264.7 macrophage cells; test: Time-lapse video of LRBA-associated vesicle movement after LPS; assay type: cell-based, mouse
Procedure: FIGS. 14(A) and (B) are graphs showing LPS stimulates LRBA-positive vesicles movements. RAW264.7 macrophage cells stably transfected with pBWEGFP were cultured in a glass bottom dish and put into the culture chamber. LPS was added at final concentration of 100 ng/ml. The time-lapse video of four living cells was taken at one picture per second using the Leica TCS SP2 laser scanning inverted confocal microscope with a mini cell culture chamber at 37° C. and 5% CO2. (A) Average speed of LRBA-associated vesicles; (B) Average maximum speed of LRBA-associated vesicles; The two tails and unpaired T test p values: ***p<0.001; *p<0.0138 (A); ***p<0.0005; *p<0.0117 (B).
Time lapse video was taken for living macrophage cells. RAW264.7 macrophage cells stably transfected with pBWEGFP were cultured in a glass bottom dish and put into the mini cell culture chamber at 37° C. and 5% CO2 in a Leica TCS SP2 laser scanning inverted confocal microscope. LPS was added at final concentration of 100 ng/ml. The time-lapse video of four living cells was taken at one picture per second using the Avg. timelapse interval: 1000.05 ms (1.0 Hz) (+/−8.9 ms); Initial SAC Position: 1700; Objective: 100× (magnification: 100.00×); Mag. changer: EMCCD (magnification: 1.00×); 8 inning: 1×1; Channel 1: c488em at 50 ms. Gain: 3 Intensification: 700 ND: 60 [Independent]. […]

LRBA = test: Plasma LRBA levels (ELISA) in mice stimulated with LPS; assay type: in vivo
Procedure: (A) Mice stimulated with LPS (1 μg/g body weight) for 6 hours. (B) OVA induced asthma mouse model.
(§3) (C) Asthma patients with an exacerbation or controlled symptoms; (D) Human mononuclear leukocytes stimulated with LPS (1 μg/ml). LPS was derived from Escherichia coli 0111:B4 (Sigma, St. Louis, Mo.). LRBA levels were determined by LRBA ELISA Kit using 100 μl of plasma or conditioned media in each well, following the manufacturer's protocol.
(§4) A) Mice stimulated with LPS (5 μg/g body weight) for 6 hours. (B) OVA induced asthma mouse model; (C) Asthma patients with an exacerbation or controlled symptoms; (D) Human mononuclear leukocytes stimulated with LPS (1 μg/ml). LRBA levels were determined by LRBA ELISA Kit using 100 μl of plasma or conditioned media in each well. C57BL/6J mice were injected intraperitoneally with 500 μl of 12 mg/kg (body weight) of LRBA antibody or control normal rabbit 1 gG suspended in saline three times. LPS at 7.5 mg/kg in 0.2 ml PBS i.p was followed. About 100 μl of blood was collected by submandibular venipuncture after 2 hours of LPS injection. Plasma samples were obtained by centrifugation at 3000 rpm for 15 min and used for cytokine assay. The TNFα and IL-6 concentrations were detected using the mouse CBA Th1/Th2/Th17 cytokine kit. The Phosflow Starter Kit contains Cytofix Fixation Buffer, Phosflow Perm Buffer III and Stain Buffer BSA.

[4] = test system: Human mononuclear leukocytes; test: LRBA levels in culture supernatants of mononuclear leukocytes stimulated with LPS; assay type: cell-based; details: LPS 1 μg/ml
Procedure: as §3, §4

[5] = Bone Marrow, LPS 5 μg/g i.p., 24 h

Lipopolysaccharide [LPS]
B220 Median Intensity [1, 5]: 2423 ± 396.6 arbitrary fluorescence intensity units
B220 Percentage [1, 5]: 15.5 ± 5.1%
BAFFR Median Intensity [1, 5]: 693.3 ± 84.1 arbitrary fluorescence intensity units
BAFFR Percentage [1, 5]: 43.7 ± 4.9%
CD19 Median Intensity [1, 5]: 1951105 arbitrary fluorescence intensity units
CD19 Percentage [1, 5]: 17.9 ± 5.5%
CD21 Median Intensity [1, 5]: 378 ± 53.8 arbitrary fluorescence intensity units
CD21 Percentage [1, 5]: 24.5 ± 1.23%
TACI Percentage [1, 5]: 1.4 ± 0.35%
TLR4 Median Intensity [1, 5]: 592 ± 28.8 arbitrary fluorescence intensity units
TLR4 Percentage [1, 5]: 50.9 ± 3.3%
B220 Median Intensity fold ([1]; Bone Marrow): 0.69↑
B220 Percentage fold ([1]; Bone Marrow): 1.02
BAFFR Median Intensity fold ([1]; Bone Marrow): 1.58↓
BAFFR Percentage fold ([1]; Bone Marrow): 0.81
CD19 Median Intensity fold ([1]; Bone Marrow): 0.94
CD19 Percentage fold ([1]; Bone Marrow): 0.83
CD21 Median Intensity fold ([1]; Bone Marrow): 2.02↓
CD21 Percentage fold ([1]; Bone Marrow): 1.1
TACI Median Intensity fold ([1]; Bone Marrow): 1.03
TACI Percentage fold ([1]; Bone Marrow): 2.16
TLR4 Median Intensity fold ([1]; Bone Marrow): 0.97
TLR4 Percentage fold ([1]; Bone Marrow): 1.13↓
B220 Median Intensity ([1]; Spleen, LPS 5 μg/g i.p., 24 h): 4031.3 ± 153.2 arbitrary fluorescence intensity units
B220 Percentage ([1]; Spleen, LPS 5 μg/g i.p., 24 h): 58.7 ± 4.5%
BAFFR Median Intensity ([1]; Spleen, LPS 5 μg/g i.p., 24 h): 842.7 ± 73.1 arbitrary fluorescence intensity units
BAFFR Percentage ([1]; Spleen, LPS 5 μg/g i.p., 24 h): 94.7 ± 0.92%
CD19 Median Intensity ([1]; Spleen, LPS 5 μg/g i.p., 24 h): 1792237 arbitrary fluorescence intensity units
CD19 Percentage ([1]; Spleen, LPS 5 μg/g i.p., 24 h): 59 ± 4.1%
CD21 Median Intensity ([1]; Spleen, LPS 5 μg/g i.p., 24 h): 580.71 ± 56.5 arbitrary fluorescence intensity units
CD21 Percentage ([1]; Spleen, LPS 5 μg/g i.p., 24 h): 80.9 ± 9.7%
TACI Median Intensity ([1]; Spleen, LPS 5 μg/g i.p., 24 h): 560.7 ± 60.1 arbitrary fluorescence intensity units
TACI Percentage ([1]; Spleen, LPS 5 μg/g i.p., 24 h): 7.9 ± 2.70%
TLR4 Median Intensity ([1]; Spleen, LPS 5 μg/g i.p., 24 h): 502.7 ± 3.1 arbitrary fluorescence intensity units
TLR4 Percentage ([1]; Spleen, LPS 5 μg/g i.p., 24 h): 55.7 ± 4.0%
B220 Median Intensity fold ([1]; Spleen): 1
B220 Percentage fold ([1]; Spleen): 0.8↑
BAFFR Median Intensity fold ([1]; Spleen): 1.19↓
BAFFR Percentage fold ([1]; Spleen): 0.98
CD19 Median Intensity fold ([1]; Spleen): 1.07
CD19 Percentage fold ([1]; Spleen): 0.8↑
CD21 Median Intensity fold ([1]; Spleen): 1.45↓
CD21 Percentage fold ([1]; Spleen): 1.1
TACI Median Intensity fold ([1]; Spleen): 1.1
TACI Percentage fold ([1]; Spleen): 0.35↑
TLR4 Median Intensity fold ([1]; Spleen): 1.02
TLR4 Percentage fold ([1]; Spleen): 1.16↓
TACI on splenocytes and bone marrow cells [2]: significantly upregulated
average speed of vesicles ([3]; 3 min after adding LPS (100 ng/ml) into the media): doubles
average speed of vesicles ([3]; after 5 and 23 min of LPS (100 ng/ml)): slows down to original levels
LRBA secreted into plasma upon LPS stimulation (LRBA; high levels, upper value): up to 6.7 μg/L
LRBA levels in plasma (LRBA; mice stimulated with LPS for 6 hours): significantly increased
LRBA levels in the culture supernatants [4]: significantly increased
